Common to all, as to assay type: functional, cell-based
One assay deals with COLO 205. As to the kind of experiment: cells. Conditions: Homo sapiens.
Another assay concerns NCI-H838. The assay can be described thus: cells. Conditions: Homo sapiens.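 Note: growth inhibition of human NCI-H838 cells, read out by a cell viability assay.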
The subject of the next assay is CCF-STTG1. As to the kind of experiment: cells. The following applies: Homo sapiens.
The test system of another assay is NCI-H2107. As to the kind of experiment: SANGER: Inhibition of human NCI-H2107 cell growth in a cell viability assay.
The subject of the next assay is SKM-1. The assay can be described thus: SANGER: Inhibition of human SKM-1 cell growth in a cell viability assay.
The subject of the next assay is NCI-H1975. The assay can be described thus: cells. Conditions: Homo sapiens.
The next assay concerns SK-MG-1. The assay can be described thus: SANGER: Inhibition of human SK-MG-1 cell growth in a cell viability assay.
Another assay relates to Caov-4. The assay can be described thus: cells. The following applies: Homo sapiens.
The subject of the next assay is SK-MEL-5. As to the kind of experiment: SANGER: Inhibition of human SK-MEL-5 cell growth in a cell viability assay.
Another assay concerns CRO-AP2. As to the kind of experiment: SANGER: Inhibition of human CRO-AP2 cell growth in a cell viability assay.
Another assay has as its system KP-N-RT-BM-1. As to the kind of experiment: SANGER: Inhibition of human KP-N-RT-BM-1 cell growth in a cell viability assay.
For the next assay, the system named is CP67-MEL. As to the kind of experiment: SANGER: Inhibition of human CP67-MEL cell growth in a cell viability assay.
The next assay relates to TC-YIK. As to the kind of experiment: SANGER: Inhibition of human TC-YIK cell growth in a cell viability assay.
The test system of the next assay is NCI-H378. As to the kind of experiment: SANGER: Inhibition of human NCI-H378 cell growth in a cell viability assay.
For a further assay, the system named is NCI-H250. As to the kind of experiment: SANGER: Inhibition of human NCI-H250 cell growth in a cell viability assay.

Here are results for 24 compounds from ChEMBL document CHEMBL1201861, “Genomics of Drug Sensitity in Cancer screening data, Wellcome Trust Sanger Institute”.

The structures appear in SMILES notation. pIC50: −log10 of the molar value. Some results are limits rather than exact numbers.

As usually defined, the pIC50 is −log10 of the IC50, conventionally taken in molar units.

Description for CCF-STTG1: SANGER: Inhibition of human CCF-STTG1 cell growth in a cell viability assay.
Description for COLO 205: SANGER: Inhibition of human COLO-205 cell growth in a cell viability assay.
Description for Caov-4: SANGER: Inhibition of human Caov-4 cell growth in a cell viability assay.
Description for NCI-H1975: SANGER: Inhibition of human NCI-H1975 cell growth in a cell viability assay.
Description for NCI-H838: SANGER: Inhibition of human NCI-H838 cell growth in a cell viability assay.

On to `Cn1cncc1[C@@](N)(c1ccc(Cl)cc1)c1ccc2c(c1)c(-c1cccc(Cl)c1)cc(=O)n2C` [TIPIFARNIB], for which the values for the pIC50 in the assay on COLO 205, in the assay on NCI-H838 and in the assay with CCF-STTG1 were 5.38, less than 4.80 and less than 4.80, respectively.

In the case of `COC(=O)CNC(=O)C(=O)OC`, the pIC50 is less than 2.40 in the assay with COLO 205, 2.87 in the assay with NCI-H838 and less than 2.40 in the assay with CCF-STTG1.

Consider `CC1=C2C[C@H]3[C@@H](CC=C4C[C@@H](O)CC[C@@]43C)[C@@H]2CC[C@]12O[C@@H]1C[C@H](C)CN[C@H]1[C@H]2C` [CYCLOPAMINE], for which the pIC50 in the assay on NCI-H2107 and in the assay on SKM-1 was less than 4.80 in each case.

With `Nc1ccn([C@@H]2O[C@H](CO)[C@@H](O)[C@@H]2O)c(=O)n1` [CYTARABINE], the pIC50 in the assay on NCI-H1975 is less than 5.70.

Regarding `Cc1cc([C@@H](C)Nc2ccccc2C(=O)O)c2nc(N3CCOCC3)cc(=O)n2c1` [AZD-6482], the pIC50 in the assay with COLO 205, in the assay with NCI-H838, in the assay with SK-MG-1, in the assay with Caov-4, in the assay with SK-MEL-5 and in the assay with NCI-H1975 was less than 5.29 throughout. The same compound gave a pIC50 in the assay on CCF-STTG1 of 5.85.

For the compound `CNC(=O)c1cc(Oc2ccc(NC(=O)Nc3ccc(Cl)c(C(F)(F)F)c3)cc2)ccn1` [SORAFENIB], the pIC50 in the assay on NCI-H2107, with CRO-AP2 and in the assay on SKM-1 was less than 5.40 throughout.

For the compound `Cc1cc(Nc2cc(N3CCN(C)CC3)nc(Sc3ccc(NC(=O)C4CC4)cc3)n2)n[nH]1` [TOZASERTIB], the pIC50 with NCI-H2107, in the assay on KP-N-RT-BM-1, in the assay on CP67-MEL and with SKM-1 was less than 5.70 each time.

`O=C(NOCC1CC1)c1ccc(F)c(F)c1Nc1ccc(I)cc1Cl` [CI-1040] gave a pIC50 with NCI-H1975 of 5.19.

Turning to `CN(c1ncccc1CNc1nc(Nc2ccc3c(c2)CC(=O)N3)ncc1C(F)(F)F)S(C)(=O)=O` [PF-00562271], the pIC50 in the assay on COLO 205 is 6.31; in the assay with NCI-H838, less than 5.59; in the assay on Caov-4 it was less than 5.59; in the assay with CCF-STTG1, less than 5.59.

Regarding `Cc1ccc(Nc2nccc(N(C)c3ccc4c(C)n(C)nc4c3)n2)cc1S(N)(=O)=O` [PAZOPANIB], the values for the pIC50 in the assay on COLO 205, in the assay on NCI-H838 and in the assay with CCF-STTG1 were less than 5.10, less than 5.10 and 5.98, respectively.

In the case of `Cn1cc(C2=C(c3ccc(Cl)cc3Cl)C(=O)NC2=O)c2ccccc21` [SB-216763], the pIC50 in the assay with NCI-H1975 was less than 5.00.

`CN(C)C/C=C/C(=O)Nc1cc2c(Nc3ccc(F)c(Cl)c3)ncnc2cc1O[C@H]1CCOC1` [AFATINIB] had a pIC50 in the assay with NCI-H1975 of less than 6.30.

With `CO[C@H]1C[C@@H]2CC[C@@H](C)[C@@](O)(O2)C(=O)C(=O)N2CCCC[C@H]2C(=O)O[C@H]([C@H](C)C[C@@H]2CC[C@@H](O)[C@H](OC)C2)CC(=O)[C@H](C)/C=C(\C)[C@@H](O)[C@@H](OC)C(=O)[C@H](C)C[C@H](C)/C=C/C=C/C=C/1C` [SIROLIMUS], the pIC50 with TC-YIK, in the assay with KP-N-RT-BM-1, in the assay on CP67-MEL and with SKM-1 was less than 7.00 in each case.

`O=C(/C=C/c1ccccc1)NC(NC(=S)Nc1cccc2cccnc12)C(Cl)(Cl)Cl` (stereo not given) [SALUBRINAL]: the pIC50 with NCI-H2107 and with SKM-1 was less than 4.80 in each case.

Take `Cc1cnc(-c2cnc(NCCNc3ccc(C#N)cn3)nc2-c2ccc(Cl)cc2Cl)[nH]1` [LADUVIGLUSIB]: the pIC50 with COLO 205, with NCI-H838, in the assay with Caov-4 and in the assay on CCF-STTG1 was less than 5.59 in each case.

In the case of `COc1cc([C@@H]2c3cc4c(cc3[C@@H](O[C@@H]3O[C@@H]5CO[C@@H](C)O[C@H]5[C@H](O)[C@H]3O)[C@H]3COC(=O)[C@H]23)OCO4)cc(OC)c1O` [ETOPOSIDE], the pIC50 is 6.58 in the assay with COLO 205, less than 4.80 in the assay with NCI-H838, less than 4.80 in the assay on Caov-4 and 5.16 in the assay with CCF-STTG1.

As for `CS(=O)(=O)CCNCc1ccc(-c2ccc3ncnc(Nc4ccc(OCc5cccc(F)c5)c(Cl)c4)c3c2)o1` [LAPATINIB], the pIC50 in the assay on NCI-H2107 and in the assay with SKM-1 was less than 5.70 each time.

Regarding `C[C@]1(O)C[C@@H](c2nc(-c3ccc4ccc(-c5ccccc5)nc4c3)c3c(N)nccn32)C1` [LINSITINIB], the pIC50 in the assay with COLO 205 was 6.98; in the assay with NCI-H838, less than 5.59; in the assay on CCF-STTG1, less than 5.59.

As to `C=CCc1cccc(/C=N/NC(=O)CN2CCN(Cc3ccccc3)CC2)c1O` [PAC-1], the pIC50 with COLO 205, in the assay on NCI-H838 and in the assay on CCF-STTG1 was less than 5.59 each time.

With `CCC(=O)N1CCN(c2ccc(-n3c(=O)ccc4cnc5ccc(-c6cnc7ccccc7c6)cc5c43)cc2C(F)(F)F)CC1` [TORIN1], the pIC50 in the assay with NCI-H2107 is 5.93; in the assay on KP-N-RT-BM-1 it was less than 5.92; with CP67-MEL, 7.42; with SKM-1, less than 5.92.

Regarding `C=C1C(=O)O[C@@H]2C3O[C@]3(C)CC/C=C(\C)CC[C@@H]12` (stereo not given in full), the pIC50 in the assay on NCI-H378, with NCI-H250, in the assay with TC-YIK and in the assay on SKM-1 was less than 5.30 each time.

Take `CCc1nc(N)nc(N)c1-c1ccc(Cl)cc1` [PYRIMETHAMINE]: the results for the pIC50 in the assay with NCI-H2107, in the assay on CRO-AP2 and with SKM-1 were less than 4.70, 4.73 and less than 4.70, respectively.

Take `CCC1=C[C@@H]2CN(C1)Cc1c([nH]c3ccccc13)[C@@](C(=O)OC)(c1cc3c(cc1OC)N(C)[C@H]1[C@@](O)(C(=O)OC)[C@H](OC(C)=O)[C@]4(CC)C=CCN5CC[C@]31[C@@H]54)C2` [VINORELBINE]: the negative-log IC50 (pIC50) with COLO 205 was 8.86; in the assay with NCI-H838 it was 7.79; in the assay with Caov-4, less than 7.19; with CCF-STTG1, 8.08.

Regarding `CN1CCN(CCOc2cc(OC3CCOCC3)c3c(Nc4c(Cl)ccc5c4OCO5)ncnc3c2)CC1` [SARACATINIB], the pIC50 in the assay with NCI-H2107, with KP-N-RT-BM-1, in the assay on CP67-MEL, with CRO-AP2 and in the assay with SKM-1 was less than 5.70 in each case.
